Data from ChEMBL document CHEMBL1146771, “Identification of purine inhibitors of phosphodiesterase 7 (PDE7)” (Bioorg Med Chem Lett, 2004).

Key:
[1] = Inhibitory concentration ratio of PDE3 to that of PDE7
[2] = Inhibition of Phosphodiesterase 7
[3] = Inhibitory concentration ratio of PDE4 to that of PDE7
[4] = Inhibitory concentration ratio of PDE5 to that of PDE7
[5] = Inhibitory concentration ratio of PDE2 to that of PDE7
[6] = Inhibitory concentration ratio of PDE1 to that of PDE7
[7] = biological target: cGMP-specific 3',5'-cyclic phosphodiesterase (Homo sapiens, UniProt O76074); test: Inhibitory concentration against phosphodiesterase 5 (PDE5) from human platelet
[8] = biological target: T1, cGMP-dependent 3',5'-cyclic phosphodiesterase (Rattus norvegicus, UniProt Q01062); test: Inhibitory concentration against phosphodiesterase 2 from rat kidney
T1 sequence (Q01062 whole entry): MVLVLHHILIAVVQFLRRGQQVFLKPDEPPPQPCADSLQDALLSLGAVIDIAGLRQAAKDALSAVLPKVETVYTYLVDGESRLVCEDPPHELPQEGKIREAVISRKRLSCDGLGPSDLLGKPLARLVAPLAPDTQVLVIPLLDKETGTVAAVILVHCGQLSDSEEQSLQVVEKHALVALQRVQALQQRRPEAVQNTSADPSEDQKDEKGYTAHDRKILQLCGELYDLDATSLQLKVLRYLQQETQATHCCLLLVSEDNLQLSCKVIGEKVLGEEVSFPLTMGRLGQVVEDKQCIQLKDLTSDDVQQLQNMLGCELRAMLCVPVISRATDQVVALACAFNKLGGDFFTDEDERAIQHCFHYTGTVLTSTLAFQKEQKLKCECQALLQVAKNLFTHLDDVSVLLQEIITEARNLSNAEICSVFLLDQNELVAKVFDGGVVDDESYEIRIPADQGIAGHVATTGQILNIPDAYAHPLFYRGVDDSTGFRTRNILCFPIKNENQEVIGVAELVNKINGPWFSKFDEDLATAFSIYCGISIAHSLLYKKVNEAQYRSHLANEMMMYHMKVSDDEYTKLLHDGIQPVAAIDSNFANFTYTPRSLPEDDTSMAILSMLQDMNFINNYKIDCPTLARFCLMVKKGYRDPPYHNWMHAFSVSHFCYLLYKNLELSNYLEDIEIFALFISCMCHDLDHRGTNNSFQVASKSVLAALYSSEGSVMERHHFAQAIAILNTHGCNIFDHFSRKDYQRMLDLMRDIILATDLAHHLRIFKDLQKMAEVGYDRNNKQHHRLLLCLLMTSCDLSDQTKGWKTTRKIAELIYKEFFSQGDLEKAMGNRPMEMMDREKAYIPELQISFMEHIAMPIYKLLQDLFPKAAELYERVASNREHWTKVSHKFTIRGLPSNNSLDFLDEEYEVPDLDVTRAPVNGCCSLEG

Phosphodiesterase 3 = Phosphodiesterase 3 (Homo sapiens, UniProt Q14432+Q13370); test: Inhibitory concentration against phosphodiesterase 3 from human platelet
Phosphodiesterase 1 = Phosphodiesterase 1 (Bos taurus, UniProt Q01061+P14100); test: Inhibitory concentration against phosphodiesterase 1 from bovine, calmodulin; format: protein assay
Rattus norvegicus [9] = species: Rattus norvegicus; test: Inhibition of Phosphodiesterase 7 at 1 uM
Rattus norvegicus [10] = species: Rattus norvegicus

| SMILES | Ratio [1] | IC50 [2] [µM] | Ratio [3] | Ratio [4] | Ratio [5] | Ratio [6] | IC50 [8] [µM] | further results |
| --- | --- | --- | --- | --- | --- | --- | --- | --- |
| CCOC(=O)c1sc(Nc2nc(NS(=O)(=O)c3ccc(S(C)(=O)=O)cc3)c3ncn(CC)c3n2)nc1C | 0.11 | 1.6 | 0.046 | 0.55 | – | – | – | – |
| CCOC(=O)c1sc(Nc2nc(NCc3cc(OC)c(OC)c(OC)c3)c3c(ncn3CC)n2)nc1C | 33 | 0.1 | 24 | 15 | 14 | 1.7 | – | – |
| COc1nc2c([nH]1)c(=O)n(C)c(=O)n2CC(C)C | – | > 10 | – | – | – | – | > 10 | IC50 [7]: 3.02 µM; IC50 (Phosphodiesterase 3): > 10 µM; IC50 (Phosphodiesterase 1): 1.8 µM |
| COc1ccc(C2CNC(=O)C2)cc1OC1CCCC1 (stereo not given) [ROLIPRAM] | – | > 10 | – | – | – | – | > 10 | IC50 (Phosphodiesterase 3): > 10 µM; IC50 (Phosphodiesterase 1): > 10 µM |
| CCOC(=O)c1sc(Nc2nc(OCc3ccc(S(C)(=O)=O)cc3)c3ncn(CC)c3n2)nc1C | 21 | 0.37 | – | 4.1 | – | – | – | – |
| CN(C(=O)CCCOc1ccc2[nH]c(=O)ccc2c1)C1CCCCC1 [CILOSTAMIDE] | – | > 10 | – | – | – | – | > 10 | IC50 [7]: 7.15 µM; IC50 (Phosphodiesterase 1): > 10 µM |
| CCn1cnc2nc(Nc3nc(C)cs3)nc(NCc3ccc(OC)c(OC)c3)c21 | – | – | – | – | – | – | – | inhibition (Rattus norvegicus [9]): 15% |
| CCOC(=O)c1sc(Nc2nc(NCc3ccc(S(C)(=O)=O)cc3)c3c(ncn3CC)n2)nc1C | 130 | 0.055 | 22 | 0.9 | 25 | 18 | – | – |
| CCOC(=O)c1sc(Nc2nc(NCc3ccc(OC)c(OC)c3)c3c(ncn3CC)n2)nc1C | – | 0.15 | – | – | – | – | 1.7 | IC50 [7]: 0.27 µM; IC50 (Phosphodiesterase 3): 0.58 µM; IC50 (Phosphodiesterase 1): 0.22 µM |
| CCOC(=O)c1sc(Nc2nc(NCc3ccc4c(c3)OCO4)c3c(ncn3CC)n2)nc1C | 11 | 0.11 | – | 0.38 | – | 19 | – | – |
| Nc1ncnc2c1ncn2[C@@H]1O[C@@H]2COP(=O)(O)O[C@H]2[C@H]1O | – | – | – | – | – | – | – | Km (Rattus norvegicus [10]): 0.2 µM |
| CCOC(=O)c1sc(Nc2nc(NCc3ccc(S(N)(=O)=O)cc3)c3c(ncn3CC)n2)nc1C | – | 0.011 | – | – | – | – | – | – |
| CCOC(=O)c1sc(Nc2nc(NCc3ccc(OCc4ccccc4)c(OC)c3)c3c(ncn3CC)n2)nc1C | 2.5 | 0.94 | 3.8 | 2.9 | 2.3 | 1.3 | – | – |
| CCCc1nn(C)c2c(=O)[nH]c(-c3cc(S(=O)(=O)N4CCN(C)CC4)ccc3OCC)nc12 | – | > 10 | – | – | – | – | > 10 | – |
| CCn1cnc2nc(Nc3nc(C)c(C(=O)Nc4ccccc4)s3)nc(NCc3ccc(OC)c(OC)c3)c21 | 12 | 0.82 | 7 | 1.1 | 11 | 12 | – | – |
| CCOC(=O)c1sc(Nc2nc(NCc3ccc(S(N)(=O)=O)cc3)c3ncn(CC)c3n2)nc1C | > 5000 | 0.01 | 16 | 13 | 45 | 200 | – | – |
| COc1cc(-c2ccc(=O)[nH]n2)ccc1OC(F)F [ZARDAVERINE] | – | > 10 | – | – | – | – | > 10 | IC50 [7]: > 10 µM; IC50 (Phosphodiesterase 3): 0.11 µM; IC50 (Phosphodiesterase 1): > 10 µM |
| CCOC(=O)c1sc(Nc2nc(N3CCc4cc(OC)c(OC)cc4C3)c3c(ncn3CC)n2)nc1C | 17 | 0.15 | 1.3 | 4.6 | 3.6 | 2.8 | – | – |
